From patent US8623649B2, “Method of selecting a cardiomyoctye using intracellular mitochondria as an indicator” (Daiichi Sankyo Company, Limited, priority 2004, dated 2014)
Entries after “also recorded” stand apart in the source; their conditions may differ.

Assays:
Format in all cases: cell-based
[1] = test system: neonatal rat cells derived from a whole heart; test: Double staining with T668 and M7514, comparative FACS analysis of transmembrane potential per mitochondria
Procedure: Cell population was collected using the same materials and the same method as those described in Example 8. Thus collected cardiomyocytes were stained with a mitochondrial indicator, M7514 (available from Molecular Probe), independent of the transmembrane potential which can specifically stain mitochondria and with a mitochondrial indicator T668 dependent on the transmembrane potential which can also specifically stain mitochondria. The cells were analyzed using FACS immediately after the staining. It is possible to separately detect the fluorescence of T668 and that of M7514 since the wavelength of the fluorescence from T668 is different from that from M7514. In this example, three groups of cell population were detected based on T668 fluorescence as an indicator.
Next, each cell population is separated based on the ratio of fluorescent intensity derived from T668 divided by fluorescent intensity derived from M7514. […]

whole fetal cells = test: Staining of whole fetal cells (fetal rat of 9th day post conception), FACS sorting, Actinin immunostaining; conditions: 1 μM, 15 minutes at 37° C.
Procedure: Fetal rat of 9th day post conception was treated with collagenase and trypsin to collect cell population. Cells dispersed in the culture medium were exposed to 1 μM (final concentration) of a mitochondrial indicator T668 for 15 minutes at 37° C., washed 3 times, and immediately subjected to FACS analysis. One single cell population was mainly observed as a cell population based on the fluorescent intensity. On the other hand, in the high fluorescent intensity area in which the cardiomyocyte was predicted to be detected based on the analysis of a whole heart sample from the later development stage, a definite cell population could not be found (FIG. 10-1).
The cells were cultured and immunostained with an antibody against a cardiomyocyte marker, Actinin. […] Since the cardiomyocyte is extremely immature in the fetus of 9th day post conception (early embryo), it is considered in the art that quantitative alteration of the mitochondria has not completely occurred.

[2] = test system: rat cells derived from a whole heart; test: Staining of rat whole-heart cells from 11th day post conception to 8 days after birth and FACS analysis; conditions: 11th day post conception to 8 days after birth; 1 μM, 15 minutes at 37° C.
Procedure: Rat heart obtained at 11th day post conception to 8 days after birth was treated with collagenase and trypsin to collect a cell population. Cells dispersed in the culture medium were exposed to 1 μM (final concentration) of a mitochondrial indicator T668 for 15 minutes at 37° C., washed 3 times, and immediately analyzed by FACS. In consequence, the cell population was isolated by T668 fluorescent intensity. […] Therefore, it is shown that it is possible to presume the maturity of the cardiomyocyte by the method provided by the present specification.

[3] = test system: fetal rat cells derived from a whole heart; test: Staining of fetal rat whole-heart cells (13th day post conception), FACS sorting, anti-Actinin immunostaining; conditions: fetal rat heart of 13th day post conception; 1 μM, 15 minutes at 37° C.
Procedure: Fetal rat heart of 13th day post conception was treated with collagenase and trypsin to collect a cell population. Cells dispersed in the culture medium were exposed to 1 μM (final concentration) of a mitochondrial indicator T668 for 15 minutes at 37° C., washed 3 times, and immediately subjected to FACS analysis. The cells were separated into 3 groups of cell population based on T668 fluorescent intensity (FIG. 9-1).
Then, the cardiomyocyte was identified by immunostaining of the cultured cell using anti-Actinin antibody.

[4] = test system: cell mixture derived from a mouse embryonic stem cell; test: Labeling of mouse embryonic stem cell derived cell mixture with mitochondrial indicator, FACS sorting, Actinin immunostaining
Excerpt: (§1) Next, the fixed cells were labeled with a cardiomyocyte marker, mouse anti-Sarcomeric α-Actinin Antibody (available from SIGMA), which were visualized using green fluorescent material-conjugated goat anti-mouse antibody (available from Molecular Probes).

[5] = test system: cell mixture derived from a whole heart extracted from neonatal rat heart; test: Labeling of neonatal rat whole-heart cell mixture with mitochondrial indicator, FACS sorting, anti-Sarcomeric α-Actinin immunostaining; conditions: for percentage of cardiomyocyte in cells with relatively higher fluorescent intensity (P5 area): cultured 24 hours
Procedure: (§2) Neonatal rats 1-3 days after birth were sacrificed by cervical dislocation after ether anesthesia, after which the heart of each rats was isolated. Cardiac ventricle isolated from the heart was treated with 0.025% (w/v) of collagenase (available from Warthington Biomedical Corporation) in serum free D-MEM (High-glucose) medium (available from Invitrogen). By digesting the cardiac ventricle using collagenase, cells were dispersed in the medium to prepare a cell mixture derived from a whole heart.
(§3) Subsequently, the culture medium was replaced by D-MEM (High-glucose) medium (available from Invitrogen) supplemented with 10% (final concentration) of fetal bovine serum (available from JRH Bioscience). Thus prepared cultured cells were incubated in the culture medium containing 100 nM (final concentration) of a mitochondrial indicator, M7512 (available from Molecular Probe) for 10 minutes at 37° C. After incubation, the cells were washed 4 times using the culture medium and further cultured for 24 hours at 37° C.
The cell mixture derived from a whole heart was prepared in accordance with the method described in Example 1 and labeled with M7512. The labeled cell mixture derived from a whole heart was subjected to analysis of distribution of the cells of the cell mixture derived from a whole heart using FACS (registered trademark) (BD, Franklin Lakes, N.J. USA).
In this example, cells of P5 area were sorted as a cardiomyocyte and cells of P6 area were sorted as a non-cardiomyocyte, each then being separately subjected to the cell culture.
as §1
In this example, the cell mixture derived from a whole heart extracted from a neonatal rat heart, which was labeled with a mitochondrial indicator, was prepared by the same method as that described in Example 1, except that T3168 (available from Molecular Probe) was used as a mitochondrial indicator.
Thus selected cells were cultured followed by paraformaldehyde fixation by the same method as that described in Example 5, which were labeled with mouse anti-Sarcomeric α-Actinin Antibody (available from SIGMA).
Neonatal rat heart was treated with 0.025% (w/v) of collagenase (available from SIGMA) and trypsin (available from GIBCO) to collect a cell population. Cells dispersed in the culture medium were exposed to 1 μM (final concentration) of a mitochondrial indicator, T668 (available form Molecular Probe) for 15 minutes at 37° C., washed 3 times, and immediately analyzed by FACS.
Neonatal rat heart was treated with collagenase and trypsin to collect a cell population. Cells dispersed in the culture medium were exposed to 1 μM (final concentration) of a mitochondrial indicator S7563 for 15 minutes at 37° C., washed 3 times, and immediately analyzed by FACS.

[6] = test system: cell mixture derived from a whole heart extracted from neonatal rat heart; test: Fluorescent microscope observation of labeled neonatal rat whole-heart cell mixture; conditions: 100 nM, 10 minutes at 37° C., cultured 24 hours
Procedure: as §2, §3

[7] = test system: cell mixture derived from a mouse embryonic stem cell; test: Fluorescent microscope observation of labeled mouse embryonic stem cell derived cell mass; conditions: labeled as Example 1, adhesion culture 5 days after removal of M7512
Procedure: Fourteen days after differentiation and induction, a cell mass containing an autonomously pulsating cardiomyocyte was confirmed to be formed in the culture vessel, to which 10^−8 M of all trans-retinoic acid was added for further enhancing the degree of differentiation/induction of the cardiomyocyte.
At 21st day from differentiation/induction, a cell mass containing an autonomously pulsating cardiomyocyte was dispersed into separate cells to form a cell mixture. Thus prepared cell mixture was labeled with M7512 under the same condition as that of Example 1 and cultured under the condition of the adhesion culture for further 5 days after removal of M7512. After further culture for 5 days, a cell mass containing an autonomously pulsating cardiomyocyte prepared under the culture condition was observed using a fluorescent microscope.

[8] = 1 μM, 15 minutes at 37° C., immediate FACS, Actinin immunostaining
[9] = 1 μM indicator, 15 minutes at 37° C., immediate FACS, anti-Actinin immunostaining
[10] = 100 nM indicator, 10 minutes at 37° C., FACS sorted, anti-Sarcomeric α-Actinin, 30% before selection

COC(=O)c1ccccc1-c1c2ccc(N(C)C)cc2[o+]c2cc(N(C)C)ccc12 [T668, Xanthylium, 3,6-bis(dimethylamino)-9-(2-(methoxycarbonyl)phenyl)-, perchlorate]
cells with ratio of T668 fluorescent intensity to M7514 fluorescent intensity of more than 150%, share of total cells ([1]; cell population identified as a cardiomyocyte based on T668 signal): 90% | cells with ratio of T668 fluorescent intensity to M7514 fluorescent intensity of more than 150%, share of total cells ([1]; cell population identified as a non-cardiomyocyte based on T668 signal): 13% | percentage of cardiomyocyte in high fluorescent cell population (whole fetal cells): more than 95% | high fluorescent cardiomyocyte population as the development stage progressed [2]: increased in number | composition of cell population with the highest fluorescent intensity [3]: almost all cells of the cell population with the highest intensity of T668 consist of a cardiomyocyte; also recorded: almost all cells of the cell population with the highest intensity of T668 fluorescent signal consist of the cardiomyocyte | composition of cell population with the middle fluorescent intensity [3]: almost all cells of the cell population with the middle fluorescent population consist of a non-cardiomyocyte; also recorded: almost all cells of the cell population with the middle fluorescent intensity consist of the non-cardiomyocyte | composition of main cell population [4, 8]: Almost all of the cells collected consist of a non-cardiomyocyte | percentage of cardiomyocyte in high fluorescent cell population [4, 8]: More than 98% | composition of cell population with the highest fluorescent intensity [5, 9]: almost all cells of the cell population with the highest intensity of T668 fluorescent signal consist of a cardiomyocyte | composition of cell population with the middle fluorescent intensity [5, 9]: almost all cells of the cell population with the middle fluorescent intensity consist of a non-cardiomyocyte

ClCc1ccc(C2=c3cc4c5c(c3Oc3c2cc2c6c3CCCN6CCC2)CCC[N+]=5CCC4)cc1.[Cl-] [M7512, 1H,5H,11H,15H-Xantheno[2,3,4-ij:5,6,7-i′j′]diquinolizin-18-ium, 9-[4-(chloromethyl)phenyl]-2,3,6,7,12,13,16,17-octahydro-, chloride]
indicator-based fluorescence under fluorescent microscope [6]: clearly observed in a cardiomyocyte | labeling of autonomously pulsating cardiomyocytes compared with other types of cells [7]: strongly labeled | percentage of cardiomyocyte in cells collected from P2 area (relatively higher fluorescent intensity) ([4]; M7512 labeling as Example 1, 5 days culture after removal, 10% before selection): more than 80% | percentage of cardiomyocyte in cells with relatively higher fluorescent intensity (P5 area) [5, 10]: more than 99% | percentage of cardiomyocyte in cells with relatively lower fluorescent intensity (P6 area) [5, 10]: approximately equal to the percentage of the cardiomyocyte before the selection

CCN1C(=CC=Cc2n(CC)c3cc(Cl)c(Cl)cc3[n+]2CC)N(CC)c2cc(Cl)c(Cl)cc21 [T3168, 1H-Benzimidazolium, 5,6-dichloro-2-[3-(5,6-di-chloro-1,3-diethyl-1,3-dihydro-2H-benzimidazol-2-ylidene)-1-propenyl]-1,3-diethyl-, iodide, (E)-]
percentage of cardiomyocyte in cells with relatively higher fluorescent intensity (P5 area) [5, 10]: more than 95%

COC(=O)c1ccccc1-c1c2ccc(=N)cc-2oc2cc(N)ccc12.Cl [R302]
composition of cell population with the highest fluorescent intensity [5, 9]: cells of interest can also be obtained
